The test system of data set [1] is Trypomastigotes of T. cruzi (Dm28c-Luc). Kind of data set: microbe, parasite or virus in culture. Type of data set: cell-based, Trypanosoma cruzi. As to conditions: for IC50 / IC90: Trypanosoma cruzi, Dm28c-Luc, 24 h treatment; for IC50: 24 h, mean ± SD, read-out: Anti-T. cruzi Activity Trypomastigotes IC50; for IC90: read-out: Anti-T. cruzi Activity Trypomastigotes IC90. The protocol: (§1) Genetically modified T. cruzi parasites, of clone Dm28c (TcI) expressing the firefly luciferase enzyme gene (Dm28c-Luc), were kindly provided by Dr. Cristina Henriques. T. cruzi Dm28c-Luc was maintained in a Vero cell cultivated in RPMI 1640 medium supplemented with 10% FBS. At 4-day post-infection (dpi), trypomastigotes, released in the cell culture supernatant, were harvested, followed by sedimentation (4000 rpm/20 min/4 °C) and quantification in a Neubauer chamber. Isolated trypomastigotes were used in the phenotypic screening assays as well as the antiparasitic activity in 3D cardiac microtissues, recovery (washout), and drug combination assays.
Drug screening was performed against clinically relevant forms of T. cruzi (amastigotes and trypomastigotes). Trypomastigotes, Dm28c-Luc (1 × 10^6 parasites/well), were added to 96-well plates and incubated with pyrazole-thiadiazole derivatives or Bz (100–0.41 µM). After 24 h of treatment (37 °C), the viability of the parasites was analyzed by adding a D-Luciferin solution (300 µg/mL) and luminescence was measured in the Glomax microplate reader.

In data set [2] the test system is Intracellular amastigotes of T. cruzi (Dm28c-Luc). Put plainly: microbe, parasite or virus in culture. Particulars: for IC50 / IC90: Trypanosoma cruzi; for IC90: read-out: Anti-T. cruzi Activity Intracellular Amastigotes IC90. Type of data set: cell-based, Trypanosoma cruzi. On the procedure:
as §1
The activity of pyrazole-thiadiazole derivatives against intracellular amastigotes was evaluated in 24 h-T. cruzi infected Vero cell cultures (1.5 × 10^4 cells/well) at a 10:1 ratio. The cultures were washed and incubated with serial dilutions of the derivatives or Bz (100–0.41 µM). Drug treatment was carried out for 72 h at 37 °C and the parasite viability was determined by luminescence readout after D-Luciferin substrate addition (300 µg/mL). The reading was performed in the Glomax reader. The cell cultures incubated with the culture medium containing dimethylsulphoxide (DMSO; concentration ≤ 1%) were used as the […]. The concentrations required to inhibit parasite viability by 50% (IC50) and 90% (IC90) were calculated using Prism GraphPad software (version 8.2.1). The selectivity index (SI), which measures the window between cytotoxicity (CC50) and anti-T. cruzi activity (IC50), was calculated as CC50/IC50. A minimum of 3 independent assays in duplicate were performed.

The nature of data set [3]: Toxicity in mammalian cells (CellTiter Glo, 72 h). Type of data set: cell-based. As to conditions: African green monkey, Vero cells; 72 h, ATP levels; read-out: Cytotoxicity Vero Cells CC50. The protocol:
Vero cell cultures grown in RPMI 1640 medium containing 10% fetal bovine serum (FBS) were cultured at 37 °C in a humidified atmosphere of 5% CO2 [82]. The cultures were used for drug screening assays and to obtain culture-derived trypomastigotes of T. cruzi.
Vero cells (1.5 ×10^4 cells/well), cultivated for 24 h at 37 °C in white 96-well plates with clear bottoms, were used to assess the toxicity of the pyrazole-thiadiazole derivatives (series 1 and 2). After washing, the cells were incubated for 72 h at 37 °C with different drug concentrations (500–1.95 μM). Cell viability was measured by adding 20 μL/well of CellTiter Glo reagent (Promega Corporation, Madison, WI, USA). This cell viability kit generates a luminescent signal proportional to the amount of ATP. The luminescence readout was performed using the Glomax Microplate Reader (Promega Corporation, Madison, WI, USA). Thus, the 50% cytotoxicity concentration (CC50), which reduces the cell viability by 50% (CC50), was calculated with Prism GraphPad software (version 8.2.1).
(In ATP-based viability assays light output follows the ATP content of the culture.)

[4] abbreviates: Vero, read-out: Intracellular Amastigotes pIC50 (converted).
The mark [5] stands for this setting: Dm28c-Luc in Vero cells, 72 h treatment, mean ± SD, read-out: Anti-T. cruzi Activity Intracellular Amastigotes IC50.
[6] abbreviates: Dm28c-Luc in Vero cells, 72 h treatment, mean ± SD.

Where two headings read alike, the source gives them in different places.

Compound `Nc1nnc(-c2cnn(-c3ccc(F)cc3)c2N)s1` [2g, 5-Amino-2-(5-amino-1-(4-fluorophenyl)-1H-pyrazol-4-yl)-1,3,4-thiadiazole] gave a melting point of 251 to 253 °C. In data set [1], the “Trypomastigotes SI (CC50 of Vero cells/IC50 of trypomastigotes)” value (“Trypomastigotes SI” below) was more than 5, the IC50 was more than 100 µM and the IC90 is more than 100 µM. The “Intracellular Amastigotes SI (CC50 of Vero cells/IC50 of intracellular amastigotes)” value (from here on “Intracellular Amastigotes SI”) in data set [2] is more than 7.14. Also, the IC50 in data set [2] (setting [4]) is more than 70.8 µM. The IC50 in data set [2] (setting [5]) is more than 70 µM. Besides, the IC90 in data set [2] (setting [6]) is more than 70 µM. In data set [3], the CC50 at 72 h was more than 500 µM.
For `Nc1nnc(-c2cnn(-c3ccc(Cl)c(Cl)c3)c2N)s1` [2e, 5-Amino-2-(5-amino-1-(3,4-dichlorophenyl)-1H-pyrazol-4-yl)-1,3,4-thiadiazole], the melting point is 258 to 260 °C. Besides, in data set [1], the “Trypomastigotes SI” value is recorded as more than 6.88, the IC50 is 72.6 ± 6.76 µM and the IC90 was more than 100 µM. For the same compound, the “Intracellular Amastigotes SI” value in data set [2] is more than 13.73. Also, in data set [2] (setting [4]), the IC50 was 33.9 µM. In addition, the IC50 in data set [2] (setting [5]) was found to be 33.6 ± 2.16 µM. Further, in data set [2] (setting [6]), the IC90 amounted to 58.8 ± 8.26 µM. The CC50 at 72 h in data set [3] was more than 500 µM.
`Nc1nnc(-c2cnn(-c3cccc(F)c3)c2N)s1` [2h, 5-Amino-2-(5-amino-1-(3-fluorophenyl)-1H-pyrazol-4-yl)-1,3,4-thiadiazole] came in with a melting point of 285 to 286 °C. Also, in data set [1], the “Trypomastigotes SI” value is listed as more than 5, the IC50 is more than 100 µM and the IC90 was more than 100 µM. The “Intracellular Amastigotes SI” value in data set [2] is more than 7.14. Moreover, in data set [2] (setting [4]), the IC50 is more than 70.8 µM. Further, the IC50 in data set [2] (setting [5]) is more than 70 µM. For the same compound, the 90% effect concentration (IC90) in data set [2] (setting [6]) was more than 70 µM. The CC50 at 72 h in data set [3] was more than 500 µM.
In turn, `COc1ccc(-n2cc(-c3nnc(N)s3)cn2)cc1` [1l, 5-Amino-2-(1-(4-methoxyphenyl)-1H-pyrazol-4-yl)-1,3,4-thiadiazole] came in with a melting point of 298 to 300 °C. Further, in data set [1], the “Trypomastigotes SI” value is more than 9.43, the IC50 came out at 53 ± 4.44 µM and the IC90 was more than 100 µM. Moreover, the “Intracellular Amastigotes SI” value in data set [2] is given as more than 19.08. For the same compound, the IC50 in data set [2] (setting [4]) was 24.5 µM. For the same compound, the IC50 in data set [2] (setting [5]) was 24.5 ± 4.21 µM. For the same compound, in data set [2] (setting [6]), the IC90 was more than 70 µM. Moreover, the CC50 at 72 h in data set [3] is more than 500 µM.
`Nc1nnc(-c2cnn(-c3cccc(Cl)c3)c2N)s1` [2b, 5-Amino-2-(5-amino-1-(3-chlorophenyl)-1H-pyrazol-4-yl)-1,3,4-thiadiazole]: the melting point fell in the range of 289 to 291 °C. In addition, in data set [1], the “Trypomastigotes SI” value is more than 5, the IC50 is more than 100 µM and the IC90 is more than 100 µM. In data set [2], the “Intracellular Amastigotes SI” value is listed as more than 7.14. Also, the IC50 in data set [2] (setting [4]) was more than 70.8 µM. Also, the IC50 in data set [2] (setting [5]) is more than 70 µM. Besides, the IC90 in data set [2] (setting [6]) was more than 70 µM. Also, the CC50 at 72 h in data set [3] is more than 500 µM.
The compound `Nc1nnc(-c2cnn(-c3ccc(Cl)cc3)c2N)s1` [2f, 5-Amino-2-(5-amino-1-(4-chlorophenyl)-1H-pyrazol-4-yl)-1,3,4-thiadiazole] displayed a melting point of 238 to 240 °C. In data set [1], the “Trypomastigotes SI” value is on record as more than 5, the IC50 was more than 100 µM and the IC90 was more than 100 µM. The “Intracellular Amastigotes SI” value in data set [2] was more than 7.14. Moreover, the IC50 in data set [2] (setting [4]) was more than 70.8 µM. Moreover, the IC50 in data set [2] (setting [5]) is more than 70 µM. In addition, in data set [2] (setting [6]), the IC90 was more than 70 µM. For the same compound, the CC50 at 72 h in data set [3] was more than 500 µM.
`Nc1nnc(-c2cnn(-c3cc(Cl)cc(Cl)c3)c2N)s1` [2d, 5-Amino-2-(5-amino-1-(3,5-dichlorophenyl)-1H-pyrazol-4-yl)-1,3,4-thiadiazole] displayed a melting point of 299 to 300 °C. Also, in data set [1], the “Trypomastigotes SI” value was more than 5, the IC50 was more than 100 µM and the IC90 is more than 100 µM. Further, the “Intracellular Amastigotes SI” value in data set [2] is given as more than 7.14. The IC50 in data set [2] (setting [4]) was more than 70.8 µM. In addition, the IC50 in data set [2] (setting [5]) was more than 70 µM. Also, the IC90 in data set [2] (setting [6]) is more than 70 µM. Also, the CC50 at 72 h in data set [3] is more than 500 µM.
For `Nc1nnc(-c2cnn(-c3ccccc3)c2N)s1` [2a, 5-Amino-2-(5-amino-1-phenyl-1H-pyrazol-4-yl)-1,3,4-thiadiazole], the melting point lay within 131 to 132 °C. In addition, in data set [1], the “Trypomastigotes SI” value was more than 5, the IC50 is more than 100 µM and the IC90 was more than 100 µM. Further, the “Intracellular Amastigotes SI” value in data set [2] is more than 7.14. The IC50 in data set [2] (setting [4]) was more than 70.8 µM. Moreover, in data set [2] (setting [5]), the IC50 is more than 70 µM. The IC90 in data set [2] (setting [6]) was more than 70 µM. Besides, the CC50 at 72 h in data set [3] was more than 500 µM.
`Nc1nnc(-c2cnn(-c3ccc(Br)cc3)c2)s1` [1i, 5-Amino-2-(1-(4-bromophenyl)-1H-pyrazol-4-yl)-1,3,4-thiadiazole] gave a melting point of 340 to 341 °C. Moreover, in data set [1], the “Trypomastigotes SI” value is recorded as more than 5, the IC50 is more than 100 µM and the IC90 is more than 100 µM. For the same compound, in data set [2], the “Intracellular Amastigotes SI” value is recorded as more than 17.53. Also, in data set [2] (setting [4]), the IC50 was 28.2 µM. In addition, in data set [2] (setting [5]), the IC50 worked out at 28.4 ± 1.77 µM. Also, in data set [2] (setting [6]), the IC90 is more than 70 µM. Besides, the CC50 at 72 h in data set [3] was more than 500 µM.
The compound `Nc1nnc(-c2cnn(-c3cc(Cl)cc(Cl)c3)c2)s1` [1d, 5-Amino-2-(1-(3,5-dichlorophenyl)-1H-pyrazol-4-yl)-1,3,4-thiadiazole] came in with a melting point of 283 to 285 °C. In data set [1], the “Trypomastigotes SI” value is more than 5, the IC50 was more than 100 µM and the IC90 was more than 100 µM. Besides, the “Intracellular Amastigotes SI” value in data set [2] is more than 8.29. Moreover, in data set [2] (setting [4]), the IC50 was 58.9 µM. Further, the IC50 in data set [2] (setting [5]) was determined as 58.7 ± 12.3 µM. Further, the 90% effect concentration (IC90) in data set [2] (setting [6]) is more than 70 µM. The CC50 at 72 h in data set [3] is more than 500 µM.
As for `Nc1nnc(-c2cnn(-c3cccc(Br)c3)c2N)s1` [2j, 5-Amino-2-(5-amino-1-(3-bromophenyl)-1H-pyrazol-4-yl)-1,3,4-thiadiazole], the melting point lay in the range of 245 to 246 °C. Moreover, in data set [1], the “Trypomastigotes SI” value is more than 5, the IC50 is more than 100 µM and the IC90 was more than 100 µM. Also, the “Intracellular Amastigotes SI” value in data set [2] is more than 7.14. Moreover, the IC50 in data set [2] (setting [4]) was more than 70.8 µM. In addition, the IC50 in data set [2] (setting [5]) is more than 70 µM. The IC90 in data set [2] (setting [6]) is more than 70 µM. Moreover, in data set [3], the CC50 at 72 h was more than 500 µM.
Regarding `Nc1nnc(-c2cnn(-c3ccc(Cl)cc3)c2)s1` [1f, 5-Amino-2-(1-(4-chlorophenyl)-1H-pyrazol-4-yl)-1,3,4-thiadiazole], the melting point lay within 328 to 330 °C. In data set [1], the “Trypomastigotes SI” value is recorded as more than 5, the IC50 is more than 100 µM and the IC90 was more than 100 µM. The “Intracellular Amastigotes SI” value in data set [2] was more than 7.14. The IC50 in data set [2] (setting [4]) was more than 70.8 µM. The IC50 in data set [2] (setting [5]) is more than 70 µM. In data set [2] (setting [6]), the IC90 was more than 70 µM. Further, in data set [3], the CC50 at 72 h is more than 500 µM.

Broadly, the IC90 is the concentration at which the effect reaches the 90% level. A word on the CC50: it is the concentration that lowers cell viability or growth by half. What is called melting point is the temperature, or range, at which the solid turns liquid.

Source of the values: article PMC11314410, “Synthesis and Anti-Trypanosoma cruzi Activity of New Pyrazole-Thiadiazole Scaffolds” (Molecules, 2024).
